In brackets after ≈: the same amount, converted by molar mass.

For the data set the following is noted: buffer; pH 7.4; 200.0 µM.
A word on the kinetic solubility: it is the concentration staying in solution when a stock, usually in DMSO, is diluted into the medium. Turning to `O=C(Nc1ccc(F)cc1)Nc1cccnc1Cl`, the solubility (kinetic) came to 13.8 µg/mL (≈ 51.9 µM).
Next, `COc1ccc2cc3c(nc2c1)OCC3`: 25.2 µg/mL (≈ 125 µM); `CC(NC(=O)CCC(=O)c1ccccc1)c1ccc(F)cc1` (stereo not given): more than 44.9 µg/mL; `Cc1nn(C)c(C)c1/C=C(/C(=O)C(C)C)n1cncn1`: more than 41 µg/mL.
For the compound `O=[N+]([O-])c1cccc(-c2cc3ccccc3[nH]2)c1`, the solubility (kinetic) is less than 0.3 µg/mL.
With `CN(C(=O)COc1ncnc2sccc12)C1CCCCC1`, the kinetic solubility was more than 45.8 µg/mL.
Turning to `O=C(OCC(=O)N1CCc2ccccc21)[C@@H]1CC(O)CN1S(=O)(=O)c1ccccc1[N+](=O)[O-]` (stereo not given in full), the kinetic solubility worked out at 20.4 µg/mL (≈ 42.9 µM).
With `O=C(c1cc(-c2ccccc2Cl)on1)N1CCCC1`, the solubility (kinetic) was more than 41.5 µg/mL.
Next, `O=C(COC(=O)c1ccc(F)cc1Cl)NC1CCCCCCC1`: 21.2 µg/mL (≈ 62 µM); `COc1cc([N+](=O)[O-])ccc1NC(=O)COC(=O)C=C(C)C`: 3.6 µg/mL (≈ 11.7 µM); `Cc1ccc(S(=O)(=O)N2CCOCC2)cc1C(=O)OCC(=O)N1CCCCC1`: more than 61.6 µg/mL.
Next, `N#CCCN(C(=O)CSc1n[nH]c(=O)[nH]c1=O)c1ccccc1`: more than 49.7 µg/mL; `CC(=O)c1ccc(S(=O)(=O)N2CCC(C(=O)Nc3ncc(C)s3)CC2)cc1`: 3 µg/mL (≈ 7.36 µM).
Consider `Cc1ccc(NC(=O)CN(C)C(=O)COC(=O)[C@@H](NC(=O)c2ccccc2F)C(C)C)cc1`, for which the kinetic solubility was more than 68.6 µg/mL.
Next, `O=C(/C=C/c1ccc(-c2ccc(F)cc2)o1)N1CCCC1`: 31.7 µg/mL (≈ 111 µM); `CCNC(=O)c1cc(S(=O)(=O)N2CCSCC2)ccc1OC`: 45.1 µg/mL (≈ 131 µM); `O=C(O)CSc1nc(-c2ccccc2)nc2c1CCCC2`: more than 45.1 µg/mL.
With `CCOC(=O)N1CCN(C(=O)/C=C/c2ccc(C(C)(C)C)cc2)CC1`, the kinetic solubility came out at 22.9 µg/mL (≈ 66.5 µM).
Next, `COc1ccc(Br)cc1S(=O)(=O)NCCc1cccs1`: 34.4 µg/mL (≈ 91.4 µM); `CCOc1ccccc1NS(=O)(=O)c1ccc2[nH]c(=O)ccc2c1`: 48.3 µg/mL (≈ 140 µM).
For the compound `COC(=O)C1(C(C[N+](=O)[O-])c2ccco2)C(=O)NCC1c1ccccc1` (stereo not given), the solubility (kinetic) is 11.1 µg/mL (≈ 31 µM).
In turn, `Cc1cc(C)n2ncc(C(=O)O)c2n1` displayed a solubility (kinetic) of more than 28.7 µg/mL.
The figure for `O=C(CCCOc1ccccc1)NCCc1nc2ccccc2[nH]1` is more than 48.5 µg/mL; for `CC(=O)Nc1ccc(NC(=O)COC(=O)c2cc(S(=O)(=O)N3CCCC3)ccc2O)cc1` it is more than 69.2 µg/mL.
The figure for `CC(=O)c1c(C)[nH]c(C(=O)Nc2cccc(C)c2C)c1C` is 2 µg/mL (≈ 7.03 µM).
Compound `CCN(CC)c1ccc(NC(=O)c2ccc(S(=O)(=O)N3CCOCC3)cc2)cc1` registered a kinetic solubility of 4.7 µg/mL (≈ 11.3 µM).
For `CCOC(=O)N1CCc2c(sc(NC(=O)CN3CCOCC3)c2C#N)C1`, the solubility (kinetic) amounted to 48.5 µg/mL (≈ 128 µM).
Next, `O=C(NCCOc1ccccc1F)c1cc([N+](=O)[O-])ccc1N1CCOCC1`: 55.5 µg/mL (≈ 143 µM); `COc1ccc(NC(=O)CNC(=O)c2c(C)nn(C)c2Cl)cc1`: more than 50.5 µg/mL.
The figure for `C=CCn1cc(C=C2C(=O)N(C)C(=O)N(C)C2=O)c2ccccc21` is 0.8 µg/mL (≈ 2.47 µM); for `Cc1cc(OCC(O)CN(C)C(=O)C(C)Oc2ccccc2)ccc1Cl` (stereo not given) it is 45.6 µg/mL (≈ 121 µM); for `O=C(Nc1ccccc1C(=O)N1CCCCCC1)c1ccccc1` it is more than 48.4 µg/mL.
Next, `Cc1ccnc(NC(=O)c2cc3cc(F)ccc3s2)c1`: 5.2 µg/mL (≈ 18.2 µM).
`CCCc1cc(=O)[nH]c(SCC(=O)Nc2ccc(N3CCCCC3)cc2)n1`: the kinetic solubility turned out to be 16.6 µg/mL (≈ 42.9 µM).
On to `COc1ccccc1C(=O)Nc1ccc2c(C)cc(=O)oc2c1`, for which the kinetic solubility was determined as 1.3 µg/mL (≈ 4.2 µM).
Regarding `CN(C)Cc1ccccc1C(O)(c1ccccc1)c1ccccc1`, the kinetic solubility was 1.2 µg/mL (≈ 3.78 µM).
Next, `Clc1ccc2c(NCc3ccccn3)ccnc2c1`: more than 40.5 µg/mL; `Cc1cc(NC(=O)COC(=O)c2ccccc2O)no1`: 7.9 µg/mL (≈ 28.6 µM).
`Cc1cccc(C(=O)Nc2ccc(NC(=O)CN3CCOCC3)cc2)c1` yielded a solubility (kinetic) of 22.7 µg/mL (≈ 64.2 µM).
Next, `CC(C)(C)NC(=O)/C=C/c1cccs1`: more than 31.4 µg/mL; `Cc1cc(C)cc(Nc2ccc3nonc3c2[N+](=O)[O-])c1`: 1.1 µg/mL (≈ 3.87 µM).
The figure for `COc1ccc(-c2nc(N)nc(C(F)(F)F)c2-c2csc(C)n2)c(O)c1` is 2.6 µg/mL (≈ 6.8 µM); for `CC(CN1CCCCC1)OC(=O)c1ccco1.Cl` (stereo not given) it is more than 41.1 µg/mL.
The figure for `COC(=O)c1ccc(NC(=O)C2CC3CCC2C3)cc1` (stereo not given) is 8.1 µg/mL (≈ 29.6 µM); for `CC(C)OC(=O)C(C)Nc1ccc(F)c(Cl)c1` (stereo not given) it is 5.8 µg/mL (≈ 22.3 µM).
With `COc1ccc(NC(=O)c2cc(C)nc3ccccc23)cc1S(=O)(=O)N1CCOCC1`, the solubility (kinetic) turned out to be 6.1 µg/mL (≈ 13.8 µM).
Consider `O=C(COC(=O)c1ccc(Br)o1)NCc1ccc(Cl)cc1`, for which the kinetic solubility came to 7.2 µg/mL (≈ 19.3 µM).
Turning to `O=C(CN1C(=O)c2ccccc2C1=O)Nc1cc([N+](=O)[O-])ccc1O`, the solubility (kinetic) is more than 51.2 µg/mL.
The figure for `CCOC(=O)COc1nc(-c2ccc(Cl)cc2)cc(-c2ccco2)c1C#N` is less than 0.4 µg/mL; for `CCc1nc(Nc2ccc(F)cc2)c2oc3ccccc3c2n1.Cl` it is 0.8 µg/mL.
